In series [1] the test system is TFEB. The conditions noted are these: cells from patients suffering from LINCL; cited from earlier work.
The test system of series [2] is Tfeb. Briefly: Tfeb mRNA by quantitative real-time PCR in mouse primary astrocytes. The class given is cell-based. The conditions noted are these: serum free media, 12 hrs, single doses or combination. On the procedure:
Isolation of Primary Mouse Astroglia: Astroglia were isolated from mixed glial cultures as described (24, 25) according to the procedure of Giulian and Baker (26). Briefly, on day 9, the mixed glial cultures were washed three times with Dulbecco's modified Eagle's medium/F-12 and subjected to shaking at 240 rpm for 2 h at 37° C. on a rotary shaker to remove microglia. After 2 days, the shaking was repeated for 24 h for the removal of oligodendroglia and to ensure the complete removal of all nonastroglial cells. The attached cells were seeded onto new plates for further studies. Quantitative Real-Time PCR: The mRNA quantification was performed using the ABIPrism7700 sequence detection system (Applied Biosystems, Foster City, CA) using SYBR Select master mix (Applied Biosystems). The mRNA expression of the targeted genes was normalized to the level of Gapdh mRNA and data was processed by the ABI Sequence Detection System 1.6 software.
(In general: In qPCR the cycle at which signal appears reflects the starting amount.)

Series [3] concerns TFEB. The conditions noted are these: cited from earlier work.
For series [4] the following is noted: 500 mg SAM given together with aspirin 1300 mg; cited from earlier work.
For series [5], the system named is Tfeb. Briefly: TFEB mRNA by semi-quantitative RT-PCR in mouse primary astrocytes. The conditions noted are these: different concentrations, 5 hr, serum-free. It is filed as cell-based. Here is the method:
Semi-Quantitative Reverse Transcriptase-Coupled Polymerase Chain Reaction (RT-PCR): Total RNA was isolated from mouse primary astrocytes and human primary astrocytes using RNA-Easy Qiagen (Valencia, CA) kit following manufactures protocol. Semi-quantitative RTPCR was carried out as described earlier (28) using oligo (dT) 12-18 as primer and moloney murine leukemia virus reverse transcriptase (MMLV-RT, Invitrogen) in a 20 μl reaction mixture. The resulting cDNA was appropriately amplified using Promega Master Mix (Madison, WI) and the following primers (Invitrogen) for murine genes: […]
Amplified products were electrophoresed on 2% agarose (Invitrogen) gels and visualized by ethidium bromide (Invitrogen) staining. Glyceraldehyde-3-phosphate dehydrogenase (Gapdh) mRNA was used as a loading control to ascertain that an equivalent amount of cDNA was synthesized from each sample.
Mouse primary astrocytes were incubated with different concentrations (see FIG. 9) of simvastatin and pravastatin (A), (B), cinnamic acid (C), and sodium phenylbutyrate and sodium benzoate (D) for 5 hr. under serum-free condition followed by monitoring the mRNA expression of TFEB by semi-quantitative RT-PCR. Sodium formate (D) was used as a negative control for sodium phenylbutyrate and sodium benzoate.

The source of these data is US12023345B2, “Compositions and methods for treating lysosomal disorders” (RUSH UNIVERSITY MEDICAL CENTER, priority 2014, dated 2024).

With 2-hydroxypropyl-β-cyclodextrin, the “TFEB-mediated clearance of proteolipid aggregates” value in series [1] is “promotes TFEB-mediated clearance of proteolipid aggregates”.
Regarding `CC1=C(/C=C/C(C)=C/C=C/C(C)=C/C(=O)O)C(C)(C)CCC1` [ATRA, all-trans retinoic acid], the “Tfeb mRNA expression (qRT-PCR)” value in series [2] is listed as “increased expression of Tfeb”.
As to `O=c1c(-c2ccc(O)cc2)coc2cc(O)cc(O)c12` [Genistein, 5,7-dihydroxy-3-(4-hydroxyphenyl)-4H-1-benzopyran-4-one], in series [3], the “TFEB levels and activity, lysosomal biogenesis” value is “induction of TFEB levels and activity as well as lysosomal biogenesis”.
Turning to `C[S+](CC[C@H](N)C(=O)[O-])C[C@H]1O[C@@H](n2cnc3c(N)ncnc32)[C@H](O)[C@@H]1O` (stereo partly shown) [S-adenosyl-methionine], in series [4], the “reduction of the amount of stomach damage” value is reported as 90%.
As for `O=C(O)C=Cc1ccccc1` [cinnamic acid], in series [5], the “TFEB mRNA expression (semi-quantitative RT-PCR)” value is “upregulation of TFEB mRNA expression”.
Take `Cc1ccc(C)c(OCCCC(C)(C)C(=O)O)c1` [gemfibrozil]: the “Tfeb mRNA expression (qRT-PCR)” value in series [2] is reported as “increased expression of Tfeb”.
In the case of `O=C([O-])c1ccccc1.[Na+]` [sodium benzoate], the “TFEB mRNA expression (semi-quantitative RT-PCR)” value in series [5] is “upregulation of TFEB mRNA expression”.
